In publication PMC5811830 (Journal of Clinical Pharmacology, 2017):
Where two headings read alike, the source gives them in different places.

What was measured:
[1] = type: in vivo, human; details: for AUC0-264 geometric least-squares mean ratio (90%CI) (test/reference) / Cmax geometric least-squares mean ratio (90%CI) (test/reference): with vs without clarithromycin
[2] = tested on: CYP3A4; details: higher than clinical concentrations; cited from earlier work
[3] = type: in vivo, human; details: for Reduction of Cmax in the presence of rifampin: ixazomib 4 mg oral, rifampin 600 mg once daily; for AUC0-last geometric least-squares mean ratio (90%CI) (test/reference) / Cmax geometric least-squares mean ratio (90%CI) (test/reference): with vs without rifampin
[4] = tested on: CYP2C8; details: higher than clinical concentrations; cited from earlier work
[5] = Treatment-emergent adverse events and on-study deaths in the DDI study arms; type: in vivo, human
[6] = humans; cited from earlier work
[7] = tested on: P‐glycoprotein (P‐gp); details: in vitro data; cited from earlier work
[8] = tested on: CYP2C19; details: higher than clinical concentrations; cited from earlier work
[9] = clinically relevant exposures; cited from earlier work
[10] = tested on: CYP1A2; details: higher than clinical concentrations; cited from earlier work
[11] = tested on: CYP2D6; details: higher than clinical concentrations; cited from earlier work
[12] = type: in vivo, human; details: for Cmax geometric least-squares mean ratio (90%CI) (test/reference): with vs without ketoconazole
[13] = Period effect analysis; type: in vivo, human; details: pooled ketoconazole DDI, food effect and relative bioavailability arms
[14] = tested on: CYP2C9; details: higher than clinical concentrations; cited from earlier work
[15] = tested on: CYP2B6; details: higher than clinical concentrations; cited from earlier work
[16] = tested on: intestinal P‐gp; details: multiple doses of rifampin, duodenal biopsies, Western blotting; cited from earlier work
[17] = cited from earlier work
[18] = test condition: ixazomib 4 mg oral day 8 with rifampin 600 mg once daily, N = 16
[19] = Clarithromycin arm (N = 21), cycle 1 only
[20] = Rifampin arm (N = 38), test and reference groups

CC(C)C[C@H](NC(=O)CNC(=O)c1cc(Cl)ccc1Cl)B(O)O [ixazomib]
Increase in AUC with the strong CYP3A inhibitors ketoconazole and clarithromycin ([1]; observed, ketoconazole and clarithromycin DDI studies): ≤ 11% | AUC0-264 geometric least-squares mean ratio (90%CI) (test/reference) [1]: 1.11 | Cmax geometric least-squares mean ratio (90%CI) (test/reference) [1]: 0.96 | AUC0-264 geometric least-squares mean ratio (90%CI) (test/reference) ([1]; listed as Ixazomib): 1.11 (0.86‐1.43) | Cmax geometric least-squares mean ratio (90%CI) (test/reference) ([1]; listed as Ixazomib): 0.96 (0.67‐1.36) | Estimated relative contribution of 3A4 to metabolism [2]: 42% | Reduction of Cmax in the presence of rifampin [3]: 54% | Reduction of Cmax in the presence of rifampin ([3]; listed as Ixazomib): approximately 54% | Geometric mean AUC0-last, h·ng/mL (%CV) [3, 18]: 232 (50) h·ng/mL | Geometric mean Cmax, ng/mL (%CV) [3, 18]: 25.7 (50) ng/mL | Median Tmax, h (range) [3, 18]: 1.45 (0.5‐4.12) h | AUC0-last geometric least-squares mean ratio (90%CI) (test/reference) [3]: 0.26 | Cmax geometric least-squares mean ratio (90%CI) (test/reference) [3]: 0.46 | AUC0-last geometric least-squares mean ratio (90%CI) (test/reference) ([3]; listed as Ixazomib): 0.26 (0.18‐0.37) | Cmax geometric least-squares mean ratio (90%CI) (test/reference) ([3]; listed as Ixazomib): 0.46 (0.29‐0.73) | Estimated relative contribution of 2C8 to metabolism [4]: 6% | Any AE, n (%) [5, 19]: 16 (76) n (%) | Any drug-related AE, n (%) [5, 19]: 4 (19) n (%) | Any drug-related grade ≥3 AE, n (%) [5, 19]: 0 n (%) | Any drug-related serious AE, n (%) [5, 19]: 0 n (%) | Any grade ≥3 AE, n (%) [5, 19]: 2 (10) n (%) | Any serious AE, n (%) [5, 19]: 2 (10) n (%) | On-study deaths, n (%) [5, 19]: 0 n (%) | AE leading to discontinuation, n (%) ([5]; Ketoconazole arm (N = 29)): 8 (28) n (%) | Any AE, n (%) ([5]; Ketoconazole arm (N = 29)): 29 (100) n (%) | Any drug-related AE, n (%) ([5]; Ketoconazole arm (N = 29)): 27 (93) n (%) | Any drug-related grade ≥3 AE, n (%) ([5]; Ketoconazole arm (N = 29)): 10 (34) n (%) | Any drug-related serious AE, n (%) ([5]; Ketoconazole arm (N = 29)): 3 (10) n (%) | Any grade ≥3 AE, n (%) ([5]; Ketoconazole arm (N = 29)): 18 (62) n (%) | Any serious AE, n (%) ([5]; Ketoconazole arm (N = 29)): 12 (41) n (%) | On-study deaths, n (%) ([5]; Ketoconazole arm (N = 29)): 2 (7) n (%) | AE leading to discontinuation, n (%) [5, 20]: 4 (11) n (%) | Any AE, n (%) [5, 20]: 37 (97) n (%) | Any drug-related AE, n (%) [5, 20]: 32 (84) n (%) | Any drug-related grade ≥3 AE, n (%) [5, 20]: 7 (18) n (%) | Any drug-related serious AE, n (%) [5, 20]: 2 (5) n (%) | Any grade ≥3 AE, n (%) [5, 20]: 15 (39) n (%) | Any serious AE, n (%) [5, 20]: 7 (18) n (%) | On-study deaths, n (%) [5, 20]: 1 (3) n (%) | AE leading to discontinuation, n (%) ([5]; Total (N = 88)): 13 (15) n (%) | Any AE, n (%) ([5]; Total (N = 88)): 82 (93) n (%) | Any drug-related AE, n (%) ([5]; Total (N = 88)): 63 (72) n (%) | Any drug-related grade ≥3 AE, n (%) ([5]; Total (N = 88)): 17 (19) n (%) | Any drug-related serious AE, n (%) ([5]; Total (N = 88)): 5 (6) n (%) | Any grade ≥3 AE, n (%) ([5]; Total (N = 88)): 35 (40) n (%) | Any serious AE, n (%) ([5]; Total (N = 88)): 21 (24) n (%) | On-study deaths, n (%) ([5]; Total (N = 88)): 3 (3) n (%) | Patients with a study drug-related AE ([5]; across the 3 DDI study arms (N = 88)): 72% | Patients with study drug-related grade 3 AEs ([5]; across the 3 study arms, 17 patients): 19% | Patients with grade ≥3 AEs ([5]; across the 3 study arms, 35 patients): 40% | Study drug-related grade 3 AE: thrombocytopenia ([5]; across the 3 study arms, n = 2): 2% | Study drug-related grade 3 AE: vomiting ([5]; across the 3 study arms, n = 2): 2% | Study drug-related grade 3 AE: diarrhea ([5]; across the 3 study arms, n = 3): 3% | Study drug-related grade 3 AE: nausea ([5]; across the 3 study arms, n = 3): 3% | Study drug-related grade 3 AE: fatigue ([5]; across the 3 study arms, n = 9): 10% | Study drug-related AE: weight loss ([5]; across the 3 study arms, n = 10): 11% | Study drug-related AE: dehydration ([5]; across the 3 study arms, n = 12): 14% | Study drug-related AE: asthenia ([5]; across the 3 study arms, n = 13): 15% | Study drug-related AE: decreased appetite ([5]; across the 3 study arms, n = 15): 17% | Orally administered radiolabeled ixazomib recovered in urine [6]: 62% | Urinary excretion representing the parent drug [6]: < 3.5% | P-gp substrate status [7]: low‐affinity substrate | Estimated relative contribution of 2C19 to metabolism [8]: 5% | Effect on the QTc interval [9]: does not prolong the QTc interval | Estimated relative contribution of 1A2 to metabolism [10]: 26% | Estimated relative contribution of 2D6 to metabolism [11]: 5% | Geometric mean AUC0-264, h·ng/mL (%CV), not corrected for the period effect ([12]; test condition: ixazomib 2.5 mg oral, period 2 with ketoconazole): 1150 (46) h·ng/mL | Cmax geometric least-squares mean ratio (90%CI) (test/reference) [12]: 1.01 | Cmax geometric least-squares mean ratio (90%CI) (test/reference) ([12]; listed as Ixazomib): 1.01 (0.78‐1.30) | Magnitude of the period effect (period 2 AUC vs period 1 AUC), pooled analysis [13]: 1.91 fold | Estimated relative contribution of 2C9 to metabolism [14]: < 1% | Estimated relative contribution of 2B6 to metabolism [15]: 16%

CO[C@H]1/C=C/O[C@@]2(C)Oc3c(C)c(O)c4c(O)c(c(/C=N/N5CCN(C)CC5)c(O)c4c3C2=O)NC(=O)/C(C)=C\C=C\[C@H](C)[C@H](O)[C@@H](C)[C@@H](O)[C@@H](C)[C@H](OC(C)=O)[C@@H]1C [rifampin]
Assumed increase in intestinal P-gp activity [16]: 4 fold

COc1cc2nccc(Oc3ccc(NC(=O)Nc4cc(C)on4)c(Cl)c3)c2cc1OC [tivozanib]
Effect of steady-state ketoconazole on tivozanib AUC ([17]; ketoconazole 400 mg/day): did not alter | Decrease in tivozanib AUC with rifampin ([17]; rifampin 600 mg/day): 53%
